Data on one compound can be found in ChEMBL document CHEMBL5661979, “Pharmacological inhibition of BMK1 suppresses tumor growth through promyelocytic leukemia protein” (Cancer Cell, 2010).

One assay deals with eIF-2-alpha kinase GCN2 (Homo sapiens, UniProt Q9P2K8). The assay is described as follows: Inhibition of GCN2 in human HeLa cells lysate pre incubated for 15 mins followed by ATP acyl phosphate probe addition and measured after 10 mins by LC-MS/MS analysis. It counts as subcellular.
Assay [1] deals with Serine/threonine-protein kinase PLK1 (Homo sapiens, UniProt P53350). The assay is described as follows: Inhibition of PLK1 in human HeLa cells lysate at 2 uM pre incubated for 15 mins followed by ADP acyl phosphate probe addition and measured after 10 mins by LC-MS/MS analysis relative to control. It counts as subcellular. The conditions noted are these: time 25.0 min.
Assay [2] deals with Mitogen-activated protein kinase 14 (Homo sapiens, UniProt Q16539). The assay is described as follows: Inhibition of P38alpha interaction site in human HeLa cells lysate at 10 uM pre incubated for 15 mins followed by ATP acyl phosphate probe addition and measured after 10 mins by LC-MS/MS analysis relative to control. The format is subcellular. The conditions noted are these: time 25.0 min.

The target of assay [3] is T1, Phosphorylase b kinase gamma catalytic chain, liver/testis isoform (Homo sapiens) (UniProt P15735).
T1 sequence (whole entry): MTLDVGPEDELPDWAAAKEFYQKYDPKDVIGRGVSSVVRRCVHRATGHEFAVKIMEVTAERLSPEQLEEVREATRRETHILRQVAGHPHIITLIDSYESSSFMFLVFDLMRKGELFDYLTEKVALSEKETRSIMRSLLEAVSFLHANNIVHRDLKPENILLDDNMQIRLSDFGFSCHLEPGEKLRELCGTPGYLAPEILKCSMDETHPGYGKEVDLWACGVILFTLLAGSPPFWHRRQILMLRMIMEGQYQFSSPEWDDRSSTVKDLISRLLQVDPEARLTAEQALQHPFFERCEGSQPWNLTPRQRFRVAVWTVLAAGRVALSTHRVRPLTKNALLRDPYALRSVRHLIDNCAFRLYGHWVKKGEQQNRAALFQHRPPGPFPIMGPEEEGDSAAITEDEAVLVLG
The assay is described as follows: Inhibition of PHKg2 in human HeLa cells lysate at 2 uM pre incubated for 15 mins followed by ATP acyl phosphate probe addition and measured after 10 mins by LC-MS/MS analysis relative to control. The format is subcellular. The conditions noted are these: time 25.0 min.

Assay [4] concerns the target T2, Serine/threonine-protein kinase Sgk3 (Homo sapiens, UniProt Q96BR1).
T2 sequence (Q96BR1 whole entry): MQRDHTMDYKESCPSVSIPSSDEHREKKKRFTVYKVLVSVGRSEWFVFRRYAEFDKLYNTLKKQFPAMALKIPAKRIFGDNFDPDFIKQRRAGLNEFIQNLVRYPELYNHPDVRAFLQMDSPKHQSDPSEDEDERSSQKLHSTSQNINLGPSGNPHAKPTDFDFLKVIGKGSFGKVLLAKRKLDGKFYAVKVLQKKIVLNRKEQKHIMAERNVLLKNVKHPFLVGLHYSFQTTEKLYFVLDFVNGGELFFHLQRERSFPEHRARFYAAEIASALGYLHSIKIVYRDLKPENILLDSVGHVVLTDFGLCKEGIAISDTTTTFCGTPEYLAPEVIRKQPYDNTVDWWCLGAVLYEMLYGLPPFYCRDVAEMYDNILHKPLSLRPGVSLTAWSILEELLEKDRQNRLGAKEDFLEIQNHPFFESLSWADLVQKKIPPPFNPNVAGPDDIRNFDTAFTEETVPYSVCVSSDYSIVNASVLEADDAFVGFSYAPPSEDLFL
The assay is described as follows: Inhibition of SGK3 K2 site in human HeLa cells lysate pre incubated for 15 mins followed by ATP acyl phosphate probe addition and measured after 10 mins by LC-MS/MS analysis. It counts as subcellular.

Assay [5] is described as follows: Inhibition of PRKX/PRKY in human HeLa cells lysate at 50 uM pre incubated for 15 mins followed by ADP acyl phosphate probe addition and measured after 10 mins by LC-MS/MS analysis relative to control. The conditions noted are these: 25 min, condition cancer.
Assay [6] concerns the target T3, Phosphatidylinositol 5-phosphate 4-kinase type-2 alpha (Homo sapiens) (UniProt P48426).
T3 sequence (whole entry): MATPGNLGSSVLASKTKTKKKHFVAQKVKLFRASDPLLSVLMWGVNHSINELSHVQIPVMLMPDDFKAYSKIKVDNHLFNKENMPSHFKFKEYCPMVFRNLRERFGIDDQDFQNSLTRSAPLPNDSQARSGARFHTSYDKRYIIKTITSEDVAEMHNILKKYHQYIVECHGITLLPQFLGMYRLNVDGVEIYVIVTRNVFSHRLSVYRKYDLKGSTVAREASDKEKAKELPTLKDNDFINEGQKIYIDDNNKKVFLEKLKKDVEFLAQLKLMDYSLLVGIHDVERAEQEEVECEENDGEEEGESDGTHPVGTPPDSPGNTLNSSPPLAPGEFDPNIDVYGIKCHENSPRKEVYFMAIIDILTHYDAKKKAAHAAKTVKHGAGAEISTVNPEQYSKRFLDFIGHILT
The assay is described as follows: Inhibition of PIP5K2A in human HeLa cells lysate at 2 uM pre incubated for 15 mins followed by ATP acyl phosphate probe addition and measured after 10 mins by LC-MS/MS analysis relative to control. It counts as subcellular. The conditions noted are these: time 25.0 min.

For assay [7], the target named is Dual specificity mitogen-activated protein kinase kinase 6 (Homo sapiens, UniProt P52564). The assay is described as follows: Inhibition of MAP2K6 in human HeLa cells lysate pre incubated for 15 mins followed by ATP acyl phosphate probe addition and measured after 10 mins by LC-MS/MS analysis. It counts as subcellular.
Dual specificity mitogen-activated protein kinase kinase 6, sequence (P52564 whole entry): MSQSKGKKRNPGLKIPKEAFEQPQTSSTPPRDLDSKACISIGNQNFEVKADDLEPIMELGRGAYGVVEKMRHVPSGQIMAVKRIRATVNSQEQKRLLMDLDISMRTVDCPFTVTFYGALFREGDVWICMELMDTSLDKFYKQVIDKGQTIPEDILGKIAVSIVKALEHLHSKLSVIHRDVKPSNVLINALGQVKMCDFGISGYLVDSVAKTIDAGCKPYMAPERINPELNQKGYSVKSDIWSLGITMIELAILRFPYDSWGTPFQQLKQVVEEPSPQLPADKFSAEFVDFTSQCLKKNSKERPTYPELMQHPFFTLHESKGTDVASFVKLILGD
Assay [8] addresses Serine/threonine-protein kinase Chk1 (Homo sapiens, UniProt O14757). The assay is described as follows: Inhibition of CHK1 inactive site in human HeLa cells lysate pre incubated for 15 mins followed by ATP acyl phosphate probe addition and measured after 10 mins by LC-MS/MS analysis. It counts as subcellular.
Assay [9] concerns the target T4, Serine/threonine-protein kinase 3 (Homo sapiens) (UniProt Q13188).
T4 sequence (whole entry): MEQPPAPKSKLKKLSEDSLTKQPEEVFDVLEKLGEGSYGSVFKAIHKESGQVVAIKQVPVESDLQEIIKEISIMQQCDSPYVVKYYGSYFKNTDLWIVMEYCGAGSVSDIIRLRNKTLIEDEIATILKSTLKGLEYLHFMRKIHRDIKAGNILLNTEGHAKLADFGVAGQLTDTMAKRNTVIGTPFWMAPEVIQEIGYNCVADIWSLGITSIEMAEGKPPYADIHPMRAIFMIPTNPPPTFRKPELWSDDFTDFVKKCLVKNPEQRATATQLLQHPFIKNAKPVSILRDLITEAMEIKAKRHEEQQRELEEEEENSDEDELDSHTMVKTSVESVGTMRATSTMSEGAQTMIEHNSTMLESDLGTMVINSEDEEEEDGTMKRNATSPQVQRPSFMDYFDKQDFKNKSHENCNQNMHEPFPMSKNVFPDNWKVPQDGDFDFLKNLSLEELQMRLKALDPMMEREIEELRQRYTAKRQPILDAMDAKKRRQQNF
The assay is described as follows: Inhibition of MST2 in human HeLa cells lysate at 10 uM pre incubated for 15 mins followed by ADP acyl phosphate probe addition and measured after 10 mins by LC-MS/MS analysis relative to control. The conditions noted are these: time 25.0 min. It counts as subcellular.

Assay [10] deals with DNA-dependent protein kinase catalytic subunit (Homo sapiens, UniProt P78527). The assay is described as follows: Inhibition of PRKDC in human HeLa cells lysate at 50 uM pre incubated for 15 mins followed by ADP acyl phosphate probe addition and measured after 10 mins by LC-MS/MS analysis relative to control. The format is subcellular. The conditions noted are these: time 25.0 min.
DNA-dependent protein kinase catalytic subunit, sequence (P78527 whole entry): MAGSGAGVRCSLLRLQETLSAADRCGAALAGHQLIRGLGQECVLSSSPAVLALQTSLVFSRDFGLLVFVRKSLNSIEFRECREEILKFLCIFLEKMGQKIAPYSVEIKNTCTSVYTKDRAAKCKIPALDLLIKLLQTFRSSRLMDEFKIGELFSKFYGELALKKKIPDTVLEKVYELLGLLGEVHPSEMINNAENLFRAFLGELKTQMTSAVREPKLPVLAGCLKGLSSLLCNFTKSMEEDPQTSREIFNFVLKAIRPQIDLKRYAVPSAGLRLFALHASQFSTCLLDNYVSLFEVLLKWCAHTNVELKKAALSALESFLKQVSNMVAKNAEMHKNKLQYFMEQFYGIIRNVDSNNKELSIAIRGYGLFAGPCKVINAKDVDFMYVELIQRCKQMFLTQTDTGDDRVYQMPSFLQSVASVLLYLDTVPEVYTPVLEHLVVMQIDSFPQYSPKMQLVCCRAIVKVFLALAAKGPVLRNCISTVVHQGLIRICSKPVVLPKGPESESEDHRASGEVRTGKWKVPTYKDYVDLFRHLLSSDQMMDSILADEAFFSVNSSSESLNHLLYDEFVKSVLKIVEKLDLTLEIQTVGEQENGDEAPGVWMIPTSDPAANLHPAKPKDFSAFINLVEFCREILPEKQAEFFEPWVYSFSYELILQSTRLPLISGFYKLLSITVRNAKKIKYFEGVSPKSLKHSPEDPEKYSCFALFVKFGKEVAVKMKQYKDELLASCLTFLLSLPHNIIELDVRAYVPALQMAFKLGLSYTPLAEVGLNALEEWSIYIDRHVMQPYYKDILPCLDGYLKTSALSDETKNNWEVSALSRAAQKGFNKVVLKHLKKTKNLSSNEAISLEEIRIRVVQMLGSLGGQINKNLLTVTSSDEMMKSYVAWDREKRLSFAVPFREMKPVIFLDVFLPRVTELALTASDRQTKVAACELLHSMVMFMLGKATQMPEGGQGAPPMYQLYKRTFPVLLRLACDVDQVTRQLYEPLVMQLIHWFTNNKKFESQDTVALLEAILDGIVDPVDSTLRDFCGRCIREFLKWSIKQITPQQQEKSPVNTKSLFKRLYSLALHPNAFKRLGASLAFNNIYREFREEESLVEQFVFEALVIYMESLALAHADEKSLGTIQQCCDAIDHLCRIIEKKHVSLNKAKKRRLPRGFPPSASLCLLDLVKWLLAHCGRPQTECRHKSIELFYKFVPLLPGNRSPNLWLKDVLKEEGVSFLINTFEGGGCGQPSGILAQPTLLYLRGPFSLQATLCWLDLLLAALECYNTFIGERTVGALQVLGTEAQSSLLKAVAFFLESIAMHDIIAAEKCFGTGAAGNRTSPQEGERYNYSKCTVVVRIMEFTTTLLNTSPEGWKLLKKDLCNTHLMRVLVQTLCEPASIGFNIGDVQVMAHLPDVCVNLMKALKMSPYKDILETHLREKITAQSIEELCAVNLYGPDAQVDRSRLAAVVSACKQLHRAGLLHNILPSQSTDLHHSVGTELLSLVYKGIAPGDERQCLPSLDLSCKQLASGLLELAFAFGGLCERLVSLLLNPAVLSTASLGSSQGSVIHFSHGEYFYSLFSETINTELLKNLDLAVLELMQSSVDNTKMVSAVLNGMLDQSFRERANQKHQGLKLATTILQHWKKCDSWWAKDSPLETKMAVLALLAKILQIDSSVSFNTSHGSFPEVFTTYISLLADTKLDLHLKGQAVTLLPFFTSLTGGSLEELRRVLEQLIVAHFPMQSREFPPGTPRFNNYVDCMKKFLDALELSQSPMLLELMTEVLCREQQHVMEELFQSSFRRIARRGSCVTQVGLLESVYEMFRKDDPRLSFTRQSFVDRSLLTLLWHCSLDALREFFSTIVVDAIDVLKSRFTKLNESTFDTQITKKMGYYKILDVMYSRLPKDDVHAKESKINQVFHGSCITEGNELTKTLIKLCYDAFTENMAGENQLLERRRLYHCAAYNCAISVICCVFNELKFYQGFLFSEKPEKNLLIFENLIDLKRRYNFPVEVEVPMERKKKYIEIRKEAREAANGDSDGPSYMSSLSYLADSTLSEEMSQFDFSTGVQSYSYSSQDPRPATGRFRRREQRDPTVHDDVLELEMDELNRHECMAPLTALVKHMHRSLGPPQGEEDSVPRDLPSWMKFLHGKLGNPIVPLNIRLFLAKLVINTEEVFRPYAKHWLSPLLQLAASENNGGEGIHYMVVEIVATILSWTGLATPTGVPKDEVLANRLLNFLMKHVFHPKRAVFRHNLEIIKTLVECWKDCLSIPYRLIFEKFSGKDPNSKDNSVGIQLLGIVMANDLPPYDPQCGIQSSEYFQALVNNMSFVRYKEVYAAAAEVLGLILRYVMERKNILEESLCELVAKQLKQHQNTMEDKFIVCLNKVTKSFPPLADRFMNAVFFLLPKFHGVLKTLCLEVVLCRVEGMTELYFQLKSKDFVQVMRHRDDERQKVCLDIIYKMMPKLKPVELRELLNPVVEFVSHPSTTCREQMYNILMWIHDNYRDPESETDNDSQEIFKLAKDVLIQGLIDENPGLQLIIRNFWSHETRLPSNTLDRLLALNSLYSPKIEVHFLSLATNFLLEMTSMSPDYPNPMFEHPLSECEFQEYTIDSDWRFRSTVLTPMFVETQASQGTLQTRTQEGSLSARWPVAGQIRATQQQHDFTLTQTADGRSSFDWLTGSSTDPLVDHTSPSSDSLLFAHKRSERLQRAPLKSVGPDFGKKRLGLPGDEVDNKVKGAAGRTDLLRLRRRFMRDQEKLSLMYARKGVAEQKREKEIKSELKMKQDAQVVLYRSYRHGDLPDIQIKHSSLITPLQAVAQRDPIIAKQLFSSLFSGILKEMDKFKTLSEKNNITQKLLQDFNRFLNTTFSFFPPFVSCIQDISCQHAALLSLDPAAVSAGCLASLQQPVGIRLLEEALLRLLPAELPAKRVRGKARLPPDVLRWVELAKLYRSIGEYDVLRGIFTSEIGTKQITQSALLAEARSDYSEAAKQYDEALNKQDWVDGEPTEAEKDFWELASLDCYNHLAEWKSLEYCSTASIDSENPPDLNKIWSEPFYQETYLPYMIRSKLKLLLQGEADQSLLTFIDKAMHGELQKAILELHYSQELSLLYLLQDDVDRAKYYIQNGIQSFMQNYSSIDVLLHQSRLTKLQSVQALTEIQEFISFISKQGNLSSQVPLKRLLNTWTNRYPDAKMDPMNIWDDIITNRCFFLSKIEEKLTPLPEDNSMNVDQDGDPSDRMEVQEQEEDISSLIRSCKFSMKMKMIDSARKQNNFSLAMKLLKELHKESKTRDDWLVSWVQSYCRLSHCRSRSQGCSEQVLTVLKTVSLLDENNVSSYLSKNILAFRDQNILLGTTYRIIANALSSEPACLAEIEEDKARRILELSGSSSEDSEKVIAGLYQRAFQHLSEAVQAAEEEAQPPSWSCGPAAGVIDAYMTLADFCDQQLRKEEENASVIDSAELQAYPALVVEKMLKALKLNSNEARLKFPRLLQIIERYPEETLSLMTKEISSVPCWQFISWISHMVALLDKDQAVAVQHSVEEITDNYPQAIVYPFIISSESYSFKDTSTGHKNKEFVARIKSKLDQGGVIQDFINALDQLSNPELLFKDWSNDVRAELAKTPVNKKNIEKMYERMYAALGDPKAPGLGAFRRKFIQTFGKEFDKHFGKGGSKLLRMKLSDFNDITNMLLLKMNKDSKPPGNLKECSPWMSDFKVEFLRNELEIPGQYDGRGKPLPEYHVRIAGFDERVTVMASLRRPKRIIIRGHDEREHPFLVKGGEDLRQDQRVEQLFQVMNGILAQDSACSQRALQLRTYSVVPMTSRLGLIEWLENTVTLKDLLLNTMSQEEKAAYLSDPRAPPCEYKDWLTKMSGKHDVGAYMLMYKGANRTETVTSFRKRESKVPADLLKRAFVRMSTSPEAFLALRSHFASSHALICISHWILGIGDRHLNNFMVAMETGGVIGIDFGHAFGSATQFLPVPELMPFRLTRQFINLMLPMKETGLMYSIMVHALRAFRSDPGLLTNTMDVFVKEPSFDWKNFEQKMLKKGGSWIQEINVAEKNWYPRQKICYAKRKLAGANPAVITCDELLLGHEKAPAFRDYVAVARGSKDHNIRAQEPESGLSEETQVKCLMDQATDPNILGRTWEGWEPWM

Assay [11] is described as follows: Inhibition of NEK6/7 in human HeLa cells lysate at 2 uM pre incubated for 15 mins followed by ADP acyl phosphate probe addition and measured after 10 mins by LC-MS/MS analysis relative to control. As to conditions: 25 min, condition cancer.

A word on the IC50: it is the point on the concentration scale where inhibition reaches its midpoint. The inhibition is the drop in the measured response relative to a control, in per cent.

Serine/threonine-protein kinase Chk1, sequence (O14757 whole entry): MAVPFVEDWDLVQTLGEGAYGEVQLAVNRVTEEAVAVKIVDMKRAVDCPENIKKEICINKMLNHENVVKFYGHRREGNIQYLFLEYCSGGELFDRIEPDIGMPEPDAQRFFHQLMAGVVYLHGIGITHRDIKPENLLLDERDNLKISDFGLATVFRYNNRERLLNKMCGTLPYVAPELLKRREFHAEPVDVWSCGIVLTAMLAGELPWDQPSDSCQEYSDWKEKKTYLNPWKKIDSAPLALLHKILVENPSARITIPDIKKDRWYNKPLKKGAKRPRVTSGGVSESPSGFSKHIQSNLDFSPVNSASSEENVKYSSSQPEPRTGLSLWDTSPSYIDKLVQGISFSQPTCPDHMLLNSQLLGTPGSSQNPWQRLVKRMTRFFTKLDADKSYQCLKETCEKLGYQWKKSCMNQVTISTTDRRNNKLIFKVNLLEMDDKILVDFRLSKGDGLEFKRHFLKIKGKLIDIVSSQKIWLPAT

Turning to `CCOc1cc(N2CCC(O)CC2)ccc1Nc1ncc2c(n1)N(C)c1ccccc1C(=O)N2C`, the IC50 (against eIF-2-alpha kinase GCN2; in assay [4]; in [7]; in assay [8]) was above 50 µM in each case. Besides, the inhibition in assay [1] was 0%; in assay [2], 17.4%; in [3], 3.7%; in assay [6], -4.6%; in assay [9], 23.5%; in [10], 2.9%. Also, the inhibition at 50 µM in assay [5] was -27.3%. For the same compound, the inhibition at 2 µM in [11] turned out to be 6.4%.
